Test results: ChEMBL document CHEMBL1201862, “PubChem BioAssay data set” (2004)
One block for each compound: values may come before it. Activity calls are given as the source filed them.

Legend:
[1] = biological target: Photoreceptor-specific nuclear receptor (Homo sapiens, UniProt Q9Y5X4); type: functional, cell-based;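 also: CHO-S cells with Gal4-NCOR and VP16-NR2E3 two-hybrid luciferase reporter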
[2] = biological target: T1, Heat shock factor protein 1 (Mus musculus, UniProt P38532); assay: enhancement of HSF1-driven luciferase signal – cell-based, NIH3T3, luminescence, dose retest, confirmation (AID 435004); type: functional;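 also: stress induced by proteasome inhibitor MG132 added 30 min after compound; luciferase reporter driven by HSF1 response element in NIH3T3 cells; actives raise luminescence as potentiators of the MG132 stress response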
T1 sequence (P38532 whole entry): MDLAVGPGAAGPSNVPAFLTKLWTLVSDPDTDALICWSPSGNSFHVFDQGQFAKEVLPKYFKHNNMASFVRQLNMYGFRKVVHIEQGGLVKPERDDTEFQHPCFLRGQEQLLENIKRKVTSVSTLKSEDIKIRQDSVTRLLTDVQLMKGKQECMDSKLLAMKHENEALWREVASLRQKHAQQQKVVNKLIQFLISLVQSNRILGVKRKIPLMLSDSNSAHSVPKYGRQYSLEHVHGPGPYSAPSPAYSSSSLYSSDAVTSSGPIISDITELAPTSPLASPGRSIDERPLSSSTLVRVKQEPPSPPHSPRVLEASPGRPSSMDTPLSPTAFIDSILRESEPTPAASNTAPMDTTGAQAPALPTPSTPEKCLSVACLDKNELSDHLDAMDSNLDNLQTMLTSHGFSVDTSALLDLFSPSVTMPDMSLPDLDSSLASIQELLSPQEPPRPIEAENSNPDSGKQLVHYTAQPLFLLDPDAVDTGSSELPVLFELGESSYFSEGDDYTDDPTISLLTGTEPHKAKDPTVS

[3] = Counterscreen for activators of the function of SWI/SNF related, matrix associated, actin dependent regulator of chromatin, subfamily a, member 2 (SMARCA2, BRM): Luminescence-based cell-based high throughput dose response assay to identify non-selective compounds using the VP16 reporter assay.; type: functional
[4] = biological target: SWI/SNF-related matrix-associated actin-dependent regulator of chromatin subfamily A member 2 (Homo sapiens, UniProt P51531); assay: Luminescence-based cell-based high throughput dose response assay to identify activators of the function of SWI/SNF related, matrix associated, actin dependent regulator of chromatin, subfamily a, member 2 (SMARCA2, BRM).; type: functional
[5] = viability of HCT116 lacking mutant beta-catenin – cell-based, human colon tumor, dose response (AID 1045); type: functional;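 also: HCT116 colon tumor cells with beta catenin knocked out; cells exposed to compound for 60 hours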
[6] = HEK-293T viability loss after treatment – luminescence, T-cell screen hits, cytotoxicity control for TCR NF-kB inhibitor project, dose response (AID 489026); type: functional, cell-based;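 also: cells exposed to compound about 14 hours before the viability readout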
[7] = viability loss in HEK293T cells – cell-based, cherry-picks, cytotoxicity control for HIV Vif inhibitor project, dose response (AID 652208); type: functional
[8] = viability of PTEN-deleted HCT116 cells – cell-based, HCT116 PTEN knockout, dose response (AID 1047); type: functional;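 also: HCT116 colon tumor cells with PTEN knocked out; cells exposed to compound for 60 hours before readout; potency for loss of cell viability measured by luminescence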
[9] = system: Vero; assay: viability loss in Vero cells – cell-based, plate reader, cherry-pick samples, cytotoxicity control, dose response (AID 687020); type: functional; conditions: Chlorocebus sabaeus
[10] = biological target: T2, DNA repair and recombination protein RAD54-like (Homo sapiens, UniProt Q92698); assay: RAD54 Holliday junction migration blockers – biochemical, fluorescence, cherry-picked samples, dose series, confirmation (AID 651657); type: functional
T2 sequence (Q92698 whole entry): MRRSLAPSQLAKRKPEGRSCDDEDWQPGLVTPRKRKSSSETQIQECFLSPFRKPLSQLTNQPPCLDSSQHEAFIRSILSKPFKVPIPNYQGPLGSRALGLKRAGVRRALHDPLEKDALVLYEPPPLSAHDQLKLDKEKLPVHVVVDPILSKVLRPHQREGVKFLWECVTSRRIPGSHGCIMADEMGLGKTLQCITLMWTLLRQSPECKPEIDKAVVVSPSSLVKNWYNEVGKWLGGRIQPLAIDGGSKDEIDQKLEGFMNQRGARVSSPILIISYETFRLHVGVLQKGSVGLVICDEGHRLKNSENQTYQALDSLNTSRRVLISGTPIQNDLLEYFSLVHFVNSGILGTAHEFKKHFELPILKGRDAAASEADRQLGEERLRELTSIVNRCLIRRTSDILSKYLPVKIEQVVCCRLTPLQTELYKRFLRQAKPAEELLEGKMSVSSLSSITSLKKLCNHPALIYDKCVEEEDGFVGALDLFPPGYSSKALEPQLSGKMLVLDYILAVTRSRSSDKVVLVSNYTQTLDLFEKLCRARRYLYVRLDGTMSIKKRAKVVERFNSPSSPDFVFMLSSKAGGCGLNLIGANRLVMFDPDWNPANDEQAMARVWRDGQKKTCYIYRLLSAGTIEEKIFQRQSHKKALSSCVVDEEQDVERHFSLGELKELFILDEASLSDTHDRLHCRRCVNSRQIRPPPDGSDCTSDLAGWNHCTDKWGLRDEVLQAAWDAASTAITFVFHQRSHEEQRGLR

[11] = biological target: T3, Insulin-degrading enzyme (Homo sapiens, UniProt P14735); assay: Dose Response: Fluorescence polarization-based cell-based high throughput dose response assay for inhibitors of insulin-degrading enzyme (IDE). [Related pubchem assays: 434962 (Primary screen (IDE inhibitors in singlicate)), 449730 (Counterscreen (Cytotoxicity in triplicate)), 435028 (Confirmation (IDE inhibitors in triplicate)), 434984 (Summary …; type: functional
T3 sequence (P14735 whole entry): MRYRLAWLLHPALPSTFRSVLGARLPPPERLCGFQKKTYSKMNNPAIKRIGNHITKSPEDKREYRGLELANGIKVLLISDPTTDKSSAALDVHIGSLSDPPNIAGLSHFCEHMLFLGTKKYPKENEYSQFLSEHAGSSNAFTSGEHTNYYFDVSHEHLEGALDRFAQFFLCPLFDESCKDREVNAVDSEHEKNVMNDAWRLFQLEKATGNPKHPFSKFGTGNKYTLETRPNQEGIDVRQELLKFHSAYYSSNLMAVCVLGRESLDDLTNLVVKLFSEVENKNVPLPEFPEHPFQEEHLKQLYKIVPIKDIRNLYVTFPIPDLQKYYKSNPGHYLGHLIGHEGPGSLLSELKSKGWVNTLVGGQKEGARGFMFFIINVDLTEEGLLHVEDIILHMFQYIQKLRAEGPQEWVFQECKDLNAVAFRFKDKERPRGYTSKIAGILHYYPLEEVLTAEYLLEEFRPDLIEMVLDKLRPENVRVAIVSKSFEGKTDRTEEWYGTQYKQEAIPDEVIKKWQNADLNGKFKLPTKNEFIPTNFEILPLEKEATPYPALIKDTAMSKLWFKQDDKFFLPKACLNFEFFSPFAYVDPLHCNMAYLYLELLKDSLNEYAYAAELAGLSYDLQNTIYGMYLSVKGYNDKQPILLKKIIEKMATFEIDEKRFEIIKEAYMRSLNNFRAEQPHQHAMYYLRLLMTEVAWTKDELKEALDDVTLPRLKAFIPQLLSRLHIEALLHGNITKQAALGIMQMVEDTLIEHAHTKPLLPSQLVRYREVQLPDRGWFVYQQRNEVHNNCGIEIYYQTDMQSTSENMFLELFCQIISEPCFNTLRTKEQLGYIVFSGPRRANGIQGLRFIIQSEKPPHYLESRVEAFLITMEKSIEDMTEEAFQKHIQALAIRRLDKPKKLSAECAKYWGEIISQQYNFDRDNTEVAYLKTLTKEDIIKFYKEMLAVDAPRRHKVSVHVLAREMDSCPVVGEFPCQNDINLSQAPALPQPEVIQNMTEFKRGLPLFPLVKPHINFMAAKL

[12] = biological target: T4, Beta-2 adrenergic receptor (Homo sapiens, UniProt P07550); assay: ADRB2 activation measured by internalization – cell-based, FAP fluorogen, flow cytometry, cherry pick 1, dose response (AID 588763); type: functional
[13] = biological target: T4, Beta-2 adrenergic receptor; assay: Dose response for HTS for Beta-2AR agonists via FAP method from Powderset3.; type: functional
[14] = Counterscreen for IDE inhibitors: Luminescence-based cell-based high throughput dose response assay to identify compounds that are cytotoxic to HEK cells. [Related pubchem assays: 434962 (Primary screen (IDE inhibitors in singlicate)), 449730 (Counterscreen (Cytotoxicity in triplicate)), 435028 (Confirmation (IDE inhibitors in triplicate)) …; type: functional; conditions: HEK293
[15] = optical artefact potency, substrate without enzyme – biochemical, fluorescence intensity, triplicate, artefact control for kallikrein-7 zymogen activator project, dose response (AID 720493)
[16] = biological target: Kallikrein-7 (Homo sapiens, UniProt P49862); assay: Fluorescence Intensity-based biochemical primary high throughput dose response assay to identify activators of kallikrein-7 (K7) zymogen.
Chain of Kallikrein-7 (P49862 whole entry): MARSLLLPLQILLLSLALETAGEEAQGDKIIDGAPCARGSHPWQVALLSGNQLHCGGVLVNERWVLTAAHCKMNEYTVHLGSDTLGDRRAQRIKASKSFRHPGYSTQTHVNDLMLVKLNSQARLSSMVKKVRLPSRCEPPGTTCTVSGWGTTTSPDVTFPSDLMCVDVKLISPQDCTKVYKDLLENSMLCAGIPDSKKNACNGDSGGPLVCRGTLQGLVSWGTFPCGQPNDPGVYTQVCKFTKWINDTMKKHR

T4 sequence (P07550 whole entry): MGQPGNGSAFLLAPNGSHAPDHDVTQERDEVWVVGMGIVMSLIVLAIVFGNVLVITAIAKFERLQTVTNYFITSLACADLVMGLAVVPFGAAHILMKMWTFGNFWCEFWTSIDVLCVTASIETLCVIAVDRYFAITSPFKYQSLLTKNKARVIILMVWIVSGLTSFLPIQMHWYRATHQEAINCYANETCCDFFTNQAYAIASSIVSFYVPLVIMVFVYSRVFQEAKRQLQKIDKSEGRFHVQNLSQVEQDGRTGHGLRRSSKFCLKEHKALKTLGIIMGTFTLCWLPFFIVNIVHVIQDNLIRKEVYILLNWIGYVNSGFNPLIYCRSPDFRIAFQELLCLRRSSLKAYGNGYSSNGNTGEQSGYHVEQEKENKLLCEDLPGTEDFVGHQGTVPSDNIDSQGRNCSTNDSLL
Chain of SWI/SNF-related matrix-associated actin-dependent regulator of chromatin subfamily A member 2 (P51531 whole entry): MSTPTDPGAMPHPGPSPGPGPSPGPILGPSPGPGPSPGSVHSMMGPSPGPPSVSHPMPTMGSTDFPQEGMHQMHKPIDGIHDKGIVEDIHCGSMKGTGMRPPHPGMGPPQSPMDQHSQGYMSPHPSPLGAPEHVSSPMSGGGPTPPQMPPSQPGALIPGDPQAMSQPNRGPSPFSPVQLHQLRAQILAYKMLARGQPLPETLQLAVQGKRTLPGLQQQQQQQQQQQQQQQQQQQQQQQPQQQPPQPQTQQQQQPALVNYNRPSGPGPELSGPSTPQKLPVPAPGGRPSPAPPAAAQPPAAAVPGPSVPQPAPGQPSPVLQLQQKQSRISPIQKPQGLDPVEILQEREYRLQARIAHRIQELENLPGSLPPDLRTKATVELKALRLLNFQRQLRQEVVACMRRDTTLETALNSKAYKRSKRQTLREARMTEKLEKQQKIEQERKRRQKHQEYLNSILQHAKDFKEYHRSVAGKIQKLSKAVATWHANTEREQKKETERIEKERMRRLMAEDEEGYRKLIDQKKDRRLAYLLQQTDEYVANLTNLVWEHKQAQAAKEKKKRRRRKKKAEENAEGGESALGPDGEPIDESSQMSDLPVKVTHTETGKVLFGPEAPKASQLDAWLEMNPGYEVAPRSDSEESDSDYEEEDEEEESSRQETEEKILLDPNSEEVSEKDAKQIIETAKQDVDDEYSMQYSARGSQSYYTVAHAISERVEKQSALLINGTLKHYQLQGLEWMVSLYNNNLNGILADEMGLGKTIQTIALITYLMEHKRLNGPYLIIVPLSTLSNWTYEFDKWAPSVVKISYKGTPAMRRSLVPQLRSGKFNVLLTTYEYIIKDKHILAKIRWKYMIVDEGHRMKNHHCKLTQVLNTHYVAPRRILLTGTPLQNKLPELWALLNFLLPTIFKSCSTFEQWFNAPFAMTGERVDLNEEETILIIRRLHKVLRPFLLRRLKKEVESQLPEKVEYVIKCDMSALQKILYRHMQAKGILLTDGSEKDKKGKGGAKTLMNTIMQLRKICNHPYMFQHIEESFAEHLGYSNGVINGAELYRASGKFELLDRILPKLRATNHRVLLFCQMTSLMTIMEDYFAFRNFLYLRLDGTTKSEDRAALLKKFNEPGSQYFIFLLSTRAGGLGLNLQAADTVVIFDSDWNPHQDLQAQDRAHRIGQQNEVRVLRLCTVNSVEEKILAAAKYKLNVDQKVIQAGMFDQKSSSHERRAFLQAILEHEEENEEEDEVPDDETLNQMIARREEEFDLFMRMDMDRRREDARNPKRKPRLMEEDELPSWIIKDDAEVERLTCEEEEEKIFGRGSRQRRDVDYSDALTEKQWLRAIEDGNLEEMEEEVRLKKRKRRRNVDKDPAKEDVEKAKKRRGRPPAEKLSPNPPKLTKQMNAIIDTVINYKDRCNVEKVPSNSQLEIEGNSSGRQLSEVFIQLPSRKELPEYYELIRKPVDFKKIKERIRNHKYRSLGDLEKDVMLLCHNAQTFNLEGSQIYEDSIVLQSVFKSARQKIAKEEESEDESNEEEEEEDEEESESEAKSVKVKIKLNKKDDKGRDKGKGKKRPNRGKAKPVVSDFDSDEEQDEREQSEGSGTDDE
Chain of Photoreceptor-specific nuclear receptor (Q9Y5X4 whole entry, the tested form may be a part): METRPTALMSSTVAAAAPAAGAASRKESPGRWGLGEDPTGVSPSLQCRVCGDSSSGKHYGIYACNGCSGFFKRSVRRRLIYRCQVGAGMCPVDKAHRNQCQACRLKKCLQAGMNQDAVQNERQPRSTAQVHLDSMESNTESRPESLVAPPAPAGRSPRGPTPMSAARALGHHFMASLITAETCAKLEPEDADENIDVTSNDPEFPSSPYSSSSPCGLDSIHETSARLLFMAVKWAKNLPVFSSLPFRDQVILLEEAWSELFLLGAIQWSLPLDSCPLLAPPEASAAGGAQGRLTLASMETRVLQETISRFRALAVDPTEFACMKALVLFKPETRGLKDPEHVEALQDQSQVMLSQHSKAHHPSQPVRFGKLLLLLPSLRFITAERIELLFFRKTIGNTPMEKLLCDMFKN

Compound: Cc1cc(NC(=O)CSc2nc3c(sc4ccccc43)c(=O)n2CCCN2CCOCC2)[nH]n1
IC50 [1]: 0.783 µM (active)
EC50 [2]: 37.9 µM (active)
EC50 [3]: > 91.2 µM (inactive)
EC50 [4]: > 91.2 µM (inactive)
EC50 [5]: 285 µM (active)
IC50 [6]: > 80 µM (inactive)
AC50 [7]: > 52 µM (inactive)
EC50 [8]: 100 µM (active)

Compound: Cc1ccc(-c2nc(N3CCN(C)CC3)c3ccccc3n2)cc1
AC50 [9]: 26.8 µM (active)
AC50 [10]: 41.3 µM (active)

Compound: Clc1cccc(-c2nnc(SCc3nc4ccccc4[nH]3)n2Cc2ccco2)c1
IC50 [11]: 2.57 µM (active)
EC50 [12]: 10.1 µM (inactive)
EC50 [13]: 8.09 µM (active)
IC50 [14]: 22.4 µM (not active)

EC50 [16]: > 2.58 µM (active)
Compound: COc1ccc(-c2coc3c(CN4CCCCC4C)c(O)ccc3c2=O)cc1 (stereo unspecified)
EC50 [15]: > 2.58 µM (active)
